Results as given in the NIST ThermoML archive (doi:10.1021/acs.jced.7b00201).

Test: xn = mol fraction of the nth substance listed
Conditions: 100 kPa, Liquid; for mass density: Vibrating tube method; for viscosity: Falling or rolling sphere viscometry

OCC1CC1 [cyclopropylmethanol] + CCCCCCCCCCCC
Conditions | mass density [kg/m3] | viscosity [mPa·s]
318.15 K, x1 = 0.1135 | 736.06 | –
318.15 K, x1 = 0.2127 | 742.4 | –
318.15 K, x1 = 0.3059 | 749.51 | –
318.15 K, x1 = 0.3804 | 756.13 | –
318.15 K, x1 = 0.5067 | 769.82 | –
318.15 K, x1 = 0.6019 | 782.78 | –
318.15 K, x1 = 0.7011 | 799.61 | –
318.15 K, x1 = 0.7921 | 819.33 | –
318.15 K, x1 = 0.8991 | 850.32 | –
318.15 K, x1 = 1 | 892.38 | –
323.15 K, x1 = 0.1039 | – | 0.909
323.15 K, x1 = 0.1135 | 732.26 | –
323.15 K, x1 = 0.2032 | – | 0.927
323.15 K, x1 = 0.2127 | 738.54 | –
323.15 K, x1 = 0.3022 | – | 0.952
323.15 K, x1 = 0.3059 | 745.6 | –
323.15 K, x1 = 0.3804 | 752.18 | –
323.15 K, x1 = 0.3997 | – | 0.979
323.15 K, x1 = 0.4993 | – | 1.052
323.15 K, x1 = 0.5067 | 765.79 | –
323.15 K, x1 = 0.5994 | – | 1.125
323.15 K, x1 = 0.6019 | 778.71 | –
323.15 K, x1 = 0.7 | – | 1.22
323.15 K, x1 = 0.7011 | 795.48 | –
323.15 K, x1 = 0.7921 | 815.17 | –
323.15 K, x1 = 0.797 | – | 1.346
323.15 K, x1 = 0.8991 | 846.12 | –
323.15 K, x1 = 0.9004 | – | 1.546
323.15 K, x1 = 1 | 888.13 | 1.843
328.15 K, x1 = 0.1039 | – | 0.849
328.15 K, x1 = 0.1135 | 728.45 | –
328.15 K, x1 = 0.2032 | – | 0.864
328.15 K, x1 = 0.2127 | 734.66 | –
328.15 K, x1 = 0.3022 | – | 0.884
328.15 K, x1 = 0.3059 | 741.65 | –
328.15 K, x1 = 0.3804 | 748.19 | –
328.15 K, x1 = 0.3997 | – | 0.907
328.15 K, x1 = 0.4993 | – | 0.969
328.15 K, x1 = 0.5067 | 761.73 | –
328.15 K, x1 = 0.5994 | – | 1.031
328.15 K, x1 = 0.6019 | 774.6 | –
328.15 K, x1 = 0.7 | – | 1.112
328.15 K, x1 = 0.7011 | 791.32 | –
328.15 K, x1 = 0.7921 | 810.96 | –
328.15 K, x1 = 0.797 | – | 1.221
328.15 K, x1 = 0.8991 | 841.86 | –
328.15 K, x1 = 0.9004 | – | 1.391
328.15 K, x1 = 1 | 883.84 | 1.646
333.15 K, x1 = 0.1039 | – | 0.794
333.15 K, x1 = 0.1135 | 724.62 | –
333.15 K, x1 = 0.2032 | – | 0.806
333.15 K, x1 = 0.2127 | 730.75 | –
333.15 K, x1 = 0.3022 | – | 0.823
333.15 K, x1 = 0.3059 | 737.68 | –
333.15 K, x1 = 0.3804 | 744.17 | –
333.15 K, x1 = 0.3997 | – | 0.843
333.15 K, x1 = 0.4993 | – | 0.896
333.15 K, x1 = 0.5067 | 757.64 | –
333.15 K, x1 = 0.5994 | – | 0.948
333.15 K, x1 = 0.6019 | 770.44 | –
333.15 K, x1 = 0.7 | – | 1.018
333.15 K, x1 = 0.7011 | 787.11 | –
333.15 K, x1 = 0.7921 | 806.7 | –
333.15 K, x1 = 0.797 | – | 1.111
333.15 K, x1 = 0.8991 | 837.56 | –
333.15 K, x1 = 0.9004 | – | 1.257
333.15 K, x1 = 1 | 879.49 | 1.476
338.15 K, x1 = 0.1039 | – | 0.745
338.15 K, x1 = 0.1135 | 720.77 | –
338.15 K, x1 = 0.2032 | – | 0.755
338.15 K, x1 = 0.2127 | 726.81 | –
338.15 K, x1 = 0.3022 | – | 0.769
338.15 K, x1 = 0.3059 | 733.68 | –
338.15 K, x1 = 0.3804 | 740.12 | –
338.15 K, x1 = 0.3997 | – | 0.785
338.15 K, x1 = 0.4993 | – | 0.831
338.15 K, x1 = 0.5067 | 753.5 | –
338.15 K, x1 = 0.5994 | – | 0.875
338.15 K, x1 = 0.6019 | 766.25 | –
338.15 K, x1 = 0.7 | – | 0.935
338.15 K, x1 = 0.7011 | 782.85 | –
338.15 K, x1 = 0.7921 | 802.39 | –
338.15 K, x1 = 0.797 | – | 1.015
338.15 K, x1 = 0.8991 | 833.19 | –
338.15 K, x1 = 0.9004 | – | 1.141
338.15 K, x1 = 1 | 875.07 | 1.328
343.15 K, x1 = 0.1039 | – | 0.702
343.15 K, x1 = 0.1135 | 716.91 | –
343.15 K, x1 = 0.2032 | – | 0.709
343.15 K, x1 = 0.2127 | 722.85 | –
343.15 K, x1 = 0.3022 | – | 0.721
343.15 K, x1 = 0.3059 | 729.64 | –
343.15 K, x1 = 0.3804 | 736.03 | –
343.15 K, x1 = 0.3997 | – | 0.734
343.15 K, x1 = 0.4993 | – | 0.773
343.15 K, x1 = 0.5067 | 749.32 | –
343.15 K, x1 = 0.5994 | – | 0.811
343.15 K, x1 = 0.6019 | 762 | –
343.15 K, x1 = 0.7 | – | 0.862
343.15 K, x1 = 0.7011 | 778.54 | –
343.15 K, x1 = 0.7921 | 798.03 | –
343.15 K, x1 = 0.797 | – | 0.931
343.15 K, x1 = 0.8991 | 828.77 | –
343.15 K, x1 = 0.9004 | – | 1.039
343.15 K, x1 = 1 | 870.62 | 1.201
